Laboratory results as given in PMC12467033, “Exploring the Inhibitory Potential of Six Porphyrin Compounds Against α-Amylase and α-Glucosidase Linked to Diabetes” (Biomolecules, 2025).
Several values for one entry are separate records, joined by “and”; a condition that tells them apart may be missing. Equal values may be shown once. Read-outs that look alike come from different tables or passages of the source.

Key:
α-amylase [1] = biological target: T1, α-amylase (Sus scrofa, UniProt P00690); experiment: Three-dimensional fluorescence spectroscopy of α-amylase complexes; settings: 298 K; TAPP 2.5, THPP 10, TCPP 10, Fe–TCPP 12.5, Ni–TCPP 17.5, Cu–TCPP 10 μg/mL
T1 sequence (P00690 16-511): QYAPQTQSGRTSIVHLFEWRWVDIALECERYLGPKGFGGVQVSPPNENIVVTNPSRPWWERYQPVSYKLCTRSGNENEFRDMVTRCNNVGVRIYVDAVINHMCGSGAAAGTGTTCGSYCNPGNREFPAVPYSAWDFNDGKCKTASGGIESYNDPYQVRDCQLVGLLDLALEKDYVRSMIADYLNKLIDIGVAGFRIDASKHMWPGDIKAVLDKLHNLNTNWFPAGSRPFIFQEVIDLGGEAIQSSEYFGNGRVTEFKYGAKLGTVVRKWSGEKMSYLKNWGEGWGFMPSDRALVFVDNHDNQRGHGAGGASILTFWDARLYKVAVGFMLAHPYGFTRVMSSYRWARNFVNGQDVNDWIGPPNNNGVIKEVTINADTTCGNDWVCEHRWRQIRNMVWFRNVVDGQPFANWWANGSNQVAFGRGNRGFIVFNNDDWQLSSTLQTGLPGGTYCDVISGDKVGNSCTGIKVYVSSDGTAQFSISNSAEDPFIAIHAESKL

α-amylase [2] = biological target: T1, α-amylase; experiment: Mode of α-AMY inhibition (reversibility, Lineweaver–Burk kinetics); type: biochemical; settings: for type of inhibition of α-amylase: Lineweaver–Burk plots; for reversibility of inhibition of α-amylase: enzyme 100–400 U/L, substrate 5 mmol/L; for Kis: enzyme–substrate complex inhibition constant
Text: (§1) In the experiment, the concentration of the fixed substrate Gal-G2-α-CNP/pNPG solution was 5 mmol/L, and the concentrations of the two enzymes (100, 200, 300, 400 U/L) were used to determine the effect of different concentrations of porphyrins on enzyme activity. The concentration of the enzyme was 200 U/L, and the concentration of the substrate Gal-G2-α-CNP/pNPG solution (2.5, 5, 7.5, 10 mmol/L) was used to determine the effect of different concentrations of porphyrins on the enzyme-catalyzed substrate activity.
(§2) Upon identifying the type of inhibition, the kinetic equations vary for different inhibition types.
(§3) In the formula, v, Vmax, Km, Ki, and Kis represent the reaction rate, maximum reaction rate, Michaelis constant, and free enzyme inhibition constant, respectively, and the binding enzyme inhibition constant. [S] denotes the substrate concentration. [I] denotes the inhibitor concentration.

α-glucosidase [3] = biological target: T2, α-glucosidase (Saccharomyces cerevisiae, UniProt P53341); experiment: Fluorescence quenching, binding and thermodynamics with α-glucosidase; settings: for binding constants K: 310 K; for quenching mechanism of α-glucosidase fluorescence: Stern–Volmer plots; for quenching mechanism of α-glucosidase fluorescence / ΔH^0 / ΔS^0: 298–310 K; for ΔH^0 / ΔS^0: Van’t Hoff
T2 sequence (P53341 whole entry): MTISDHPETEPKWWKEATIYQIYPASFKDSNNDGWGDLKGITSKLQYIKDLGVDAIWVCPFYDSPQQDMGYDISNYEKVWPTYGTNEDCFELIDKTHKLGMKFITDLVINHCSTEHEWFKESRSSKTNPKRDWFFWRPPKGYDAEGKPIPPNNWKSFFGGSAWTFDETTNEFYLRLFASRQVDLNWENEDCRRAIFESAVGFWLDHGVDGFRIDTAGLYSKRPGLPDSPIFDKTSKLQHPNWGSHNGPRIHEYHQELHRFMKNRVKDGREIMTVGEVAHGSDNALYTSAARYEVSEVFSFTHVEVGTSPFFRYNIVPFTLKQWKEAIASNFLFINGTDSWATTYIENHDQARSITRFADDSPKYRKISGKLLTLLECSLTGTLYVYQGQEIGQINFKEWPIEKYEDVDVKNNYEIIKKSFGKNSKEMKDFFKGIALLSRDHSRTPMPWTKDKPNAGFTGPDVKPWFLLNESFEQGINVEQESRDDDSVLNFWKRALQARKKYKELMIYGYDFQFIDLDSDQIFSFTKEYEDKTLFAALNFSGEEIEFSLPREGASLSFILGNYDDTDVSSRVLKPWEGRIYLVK
Procedure: In the α-amylase experiment, a series of porphyrins and amylase (200 U/L) were mixed in a volume ratio of 1:1. In the α-glucosidase experiment, the glucosidase concentration was 400 U/L, mixed in a volume ratio of 1:1; the samples were maintained at three different temperatures (298, 304, and 310 K) for 30 min, with excitation at 280 nm and emission scanning from 300 to 500 nm.
The Stern–Volmer equation [35] was adopted to determine the quenching mechanisms between six porphyrin compounds and both enzymes in the experimental group, with Formula (6):(6) F0/F=1+Ksv[Q]=1+Kqτ0[Q]
The Stern–Volmer equation was adapted based on experimental data to more accurately characterize the quenching behavior [36], with Formula (7):(7) F0/F=e^Ksv[Q]=e^Kqτ0[Q]
In the formula, the fluorescence quenching ratio was calculated as F0/F, where F0 corresponds to the emission intensity of pure α-amylase solution (control) and F denotes the intensity measured after the incremental addition of porphyrin ligands. KSV and Kq denote the Stern–Volmer quenching constant and the bimolecular quenching rate constant, respectively, τ0 (10^−8 s) is the average fluorescence lifetime of the fluorophore in the absence of quencher, and [Q] indicates the concentration of porphyrin compounds.
Due to the presence of an internal filtration effect, a decrease in the fluorescence intensity of the system may occur. Therefore, all fluorescence data were corrected using Formula (8) to eliminate the internal filtration effect.(8) Fcor=Fobse^(Aex+Aem)/2
The evaluation of the interaction forces between porphyrin compounds and the two enzymes can be achieved by calculating thermodynamic parameters. When both ΔH^0 and ΔS^0 are positive, the predominant interaction force is hydrophobic. When both ΔH^0 and ΔS^0 are negative, the main forces are hydrogen bonding and van der Waals forces. When ΔH^0 < 0 and ΔS^0 > 0, the primary interaction is electrostatic attraction.
The thermodynamic parameters were calculated using Formulas (9) and (10), and then the Van’t Hoff plot for the interactions between the porphyrin compounds and the two enzymes was generated by plotting lnKa on the Y-axis versus 1/T on the X-axis.(9) lnKa=−ΔH^0/RT+ΔS^0/R (10) ΔG^0=ΔH^0−TΔS^0=−RTlnKa

α-glucosidase [4] = biological target: T2, α-glucosidase; type: biochemical; settings: for type of inhibition of α-glucosidase: Lineweaver–Burk plots; for reversibility of inhibition of α-glucosidase: enzyme 100–400 U/L, substrate 5 mmol/L; for Kis: enzyme–substrate complex inhibition constant
Text: as §1, §2, §3

α-amylase [5] = biological target: T1, α-amylase; experiment: FTIR secondary structure analysis of α-AMY complexes; settings: enzyme–porphyrin molar ratio 1:2, amide I band
Text: (§4) A molar ratio of 1:2 (α-amylase/α-glucosidase)–porphyrin solution was placed in a cryocentrifugal concentrator and the dried solid sample was mixed with dry KBr and measured using a Nicolet IS-50 FTIR Spectrometer (ThermoFisher, Waltham, MA, USA) with a scanning range of 4000–400 cm^−1 and a resolution of 4 cm^−1. The overlapping peaks in the amide I band (1700–1600 cm^−1) were further analyzed into multiple feature sub-peaks, and quantitative analysis of the relative content of various secondary structures in proteins using curve fitting methods was performed.

α-glucosidase [6] = biological target: T2, α-glucosidase; experiment: FTIR secondary structure analysis of α-GLU complexes; settings: enzyme–porphyrin molar ratio 1:2, amide I band
Text: as §4

[7] = free enzyme inhibition constant

iron (III) meso-tetra (4-carboxyphenyl) porphyrin chloride [Fe–TCPP]
Peak 1 Fluorescence Intensity (α-amylase [1]): 270.8 | Peak 2 Fluorescence Intensity (α-amylase [1]): 28.26 | Km (α-amylase [2]; C 25 μg/mL): 2.7329 ± 0.0882 µg/mL | Vmax (α-amylase [2]; C 25 μg/mL): 0.1143 ± 0.0037 ΔOD/min | Km (α-amylase [2]; C 50 μg/mL): 2.9384 ± 0.0447 µg/mL | Vmax (α-amylase [2]; C 50 μg/mL): 0.0972 ± 0.0015 ΔOD/min | Km (α-amylase [2]; C 100 μg/mL): 3.2079 ± 0.1016 µg/mL | Vmax (α-amylase [2]; C 100 μg/mL): 0.0748 ± 0.0024 ΔOD/min | Km (α-amylase [2]; C 150 μg/mL): 3.3360 ± 0.0508 µg/mL | Vmax (α-amylase [2]; C 150 μg/mL): 0.0601 ± 0.0009 ΔOD/min | Km (α-amylase [2]; C 200 μg/mL): 3.4920 ± 0.0491 µg/mL | Vmax (α-amylase [2]; C 200 μg/mL): 0.0512 ± 0.0007 ΔOD/min | type of inhibition of α-amylase (α-amylase [2]): mixed type | reversibility of inhibition of α-amylase (α-amylase [2]): reversible inhibition | Kis (α-amylase [2]): 117.2152 ± 0.1432 µg/mL | Ki (α-amylase [2]; [7]): 69.5865 ± 0.1284 µg/mL | binding constants K (α-glucosidase [3]): (1.02 ± 0.02) × 10^5 L·mol^−1 | quenching mechanism of α-glucosidase fluorescence (α-glucosidase [3]): static quenching | Ka (binding constant) (α-glucosidase [3]; T 298 K): 1.65 ± 0.03 ×10^5 L/mol | Kq (α-glucosidase [3]; T 298 K): 14.52 ± 0.07 ×10^12 L/mol/s | Ksv (α-glucosidase [3]; T 298 K): 14.52 ± 0.07 ×10^4 L/mol | n (number of binding sites) (α-glucosidase [3]; T 298 K): 1.01 | ΔG^0 (α-glucosidase [3]; T 298 K): -7.113 ± 0.012 kcal/mol | Ka (binding constant) (α-glucosidase [3]; T 304 K): 1.26 ± 0.03 ×10^5 L/mol | Kq (α-glucosidase [3]; T 304 K): 13.18 ± 0.05 ×10^12 L/mol/s | Ksv (α-glucosidase [3]; T 304 K): 13.18 ± 0.05 ×10^4 L/mol | n (number of binding sites) (α-glucosidase [3]; T 304 K): 1.00 | ΔG^0 (α-glucosidase [3]; T 304 K): -7.094 ± 0.017 kcal/mol | Ka (binding constant) (α-glucosidase [3]; T 310 K): 1.02 ± 0.02 ×10^5 L/mol | Kq (α-glucosidase [3]; T 310 K): 12.20 ± 0.07 ×10^12 L/mol/s | Ksv (α-glucosidase [3]; T 310 K): 12.20 ± 0.07 ×10^4 L/mol | n (number of binding sites) (α-glucosidase [3]; T 310 K): 0.98 | ΔG^0 (α-glucosidase [3]; T 310 K): -7.103 ± 0.014 kcal/mol | ΔH^0 (α-glucosidase [3]): -7.385 ± 0.014 kcal/mol | ΔS^0 (α-glucosidase [3]): −3.88 ± 0.01 J/mol/k | Km (α-glucosidase [4]): 2.6958 ± 0.0821 µg/mL and 3.3979 ± 0.1076 µg/mL and 3.9231 ± 0.1098 µg/mL and 4.1566 ± 0.0981 µg/mL and 4.3847 ± 0.0694 µg/mL | Vmax (α-glucosidase [4]; C 16 μg/mL): 0.0771 ± 0.0023 ΔOD/min | Vmax (α-glucosidase [4]; C 32 μg/mL): 0.0601 ± 0.0019 ΔOD/min | Vmax (α-glucosidase [4]; C 48 μg/mL): 0.0502 ± 0.0014 ΔOD/min | Vmax (α-glucosidase [4]; C 64 μg/mL): 0.0416 ± 0.0010 ΔOD/min | Vmax (α-glucosidase [4]; C 80 μg/mL): 0.0361 ± 0.0006 ΔOD/min | type of inhibition of α-glucosidase (α-glucosidase [4]): mixed type | reversibility of inhibition of α-glucosidase (α-glucosidase [4]): reversible inhibition | Kis (α-glucosidase [4]): 40.4085 ± 0.1084 µg/mL | Ki (α-glucosidase [4]; [7]): 9.8917 ± 0.0514 µg/mL | Random Coil (α-amylase [5]): 22.59 ± 0.03% | α-Helix (α-amylase [5]): 21.77 ± 0.07% | β-Antiparallel (α-amylase [5]): 8.76 ± 0.02% | β-Sheet (α-amylase [5]): 12.86 ± 0.04% | β-Turn (α-amylase [5]): 34.02 ± 0.08% | Random Coil (α-glucosidase [6]): 16.75% and 16.75 ± 0.03% | α-Helix (α-glucosidase [6]): 22.48 ± 0.05% | β-Antiparallel (α-glucosidase [6]): 8.02% and 8.02 ± 0.02%

Nc1ccc(-c2c3nc(c(-c4ccc(N)cc4)c4ccc([nH]4)c(-c4ccc(N)cc4)c4nc(c(-c5ccc(N)cc5)c5ccc2[nH]5)C=C4)C=C3)cc1 [TAPP]
Peak 1 Fluorescence Intensity (α-amylase [1]): 317.2 | Peak 2 Fluorescence Intensity (α-amylase [1]): 7.013 | Vmax (α-amylase [2]; C 2 μg/mL): 0.1670 ± 0.0030 ΔOD/min | Vmax (α-amylase [2]; C 4 μg/mL): 0.1562 ± 0.0039 ΔOD/min | Vmax (α-amylase [2]; C 6 μg/mL): 0.1425 ± 0.0032 ΔOD/min | Vmax (α-amylase [2]; C 8 μg/mL): 0.1328 ± 0.0034 ΔOD/min | Vmax (α-amylase [2]; C 10 μg/mL): 0.1243 ± 0.0028 ΔOD/min | type of inhibition of α-amylase (α-amylase [2]): mixed type | reversibility of inhibition of α-amylase (α-amylase [2]): reversible inhibition | Kis (α-amylase [2]): 21.2847 ± 0.0677 µg/mL | binding constants K (α-glucosidase [3]): (0.65 ± 0.02) × 10^5 L·mol^−1 | quenching mechanism of α-glucosidase fluorescence (α-glucosidase [3]): static quenching | Kq (α-glucosidase [3]; T 298 K): 6.25 ± 0.04 ×10^12 L/mol/s | Ksv (α-glucosidase [3]; T 298 K): 6.25 ± 0.04 ×10^4 L/mol | n (number of binding sites) (α-glucosidase [3]; T 298 K): 1.14 | ΔG^0 (α-glucosidase [3]; T 298 K): -7.424 ± 0.019 kcal/mol | Kq (α-glucosidase [3]; T 304 K): 5.71 ± 0.01 ×10^12 L/mol/s | Ksv (α-glucosidase [3]; T 304 K): 5.71 ± 0.01 ×10^4 L/mol | n (number of binding sites) (α-glucosidase [3]; T 304 K): 1.09 | ΔG^0 (α-glucosidase [3]; T 304 K): -7.165 ± 0.012 kcal/mol | Kq (α-glucosidase [3]; T 310 K): 5.66 ± 0.02 ×10^12 L/mol/s | Ksv (α-glucosidase [3]; T 310 K): 5.66 ± 0.02 ×10^4 L/mol | n (number of binding sites) (α-glucosidase [3]; T 310 K): 1.01 | ΔG^0 (α-glucosidase [3]; T 310 K): -6.826 ± 0.012 kcal/mol | ΔH^0 (α-glucosidase [3]): -22.23 ± 0.019 kcal/mol | ΔS^0 (α-glucosidase [3]): −207.76 ± 0.14 J/mol/k | Vmax (α-glucosidase [4]; C 12.5 μg/mL): 0.0791 ± 0.0021 ΔOD/min | Vmax (α-glucosidase [4]; C 15 μg/mL): 0.0767 ± 0.0013 ΔOD/min | Vmax (α-glucosidase [4]; C 17.5 μg/mL): 0.0736 ± 0.0015 ΔOD/min | Vmax (α-glucosidase [4]; C 20 μg/mL): 0.0711 ± 0.0011 ΔOD/min | Vmax (α-glucosidase [4]; C 22.5 μg/mL): 0.0688 ± 0.0012 ΔOD/min | type of inhibition of α-glucosidase (α-glucosidase [4]): mixed type | reversibility of inhibition of α-glucosidase (α-glucosidase [4]): reversible inhibition | Kis (α-glucosidase [4]): 55.1227 ± 0.1247 µg/mL | Random Coil (α-amylase [5]): 9.94% and 9.94 ± 0.02% | α-Helix (α-amylase [5]): 22.45 ± 0.07% | β-Antiparallel (α-amylase [5]): 18.98% and 18.98 ± 0.04% | β-Sheet (α-amylase [5]): 14.62 ± 0.03% | β-Turn (α-amylase [5]): 34.00 ± 0.09% | Random Coil (α-glucosidase [6]): 23.93 ± 0.05% | α-Helix (α-glucosidase [6]): 22.82 ± 0.08% | β-Antiparallel (α-glucosidase [6]): 1.96 ± 0.01% | β-Sheet (α-glucosidase [6]): 12.99 ± 0.13% | β-Turn (α-glucosidase [6]): 38.30 ± 0.08%
